Measurements reported in patent US10988433B2, “Cyclohexyl GPR40 agonists for the treatment of type II diabetes” (Janssen Pharmaceutica NV, priority 2016, dated 2021).

Tests used:
[1] = biological target: T1, human GPR40 (Homo sapiens, UniProt O14842); assay: GPR40 calcium flux assay, HEK293 cells stably expressing human GPR40; assay type: cell-based; conditions: transfected HEK293 cells stably expressing human GPR40, Fluo 8 dye, read-out: hGPR40 Ca2+ Assay EC50
T1 construct: expressed in transfected cells
T1 sequence (O14842 whole entry): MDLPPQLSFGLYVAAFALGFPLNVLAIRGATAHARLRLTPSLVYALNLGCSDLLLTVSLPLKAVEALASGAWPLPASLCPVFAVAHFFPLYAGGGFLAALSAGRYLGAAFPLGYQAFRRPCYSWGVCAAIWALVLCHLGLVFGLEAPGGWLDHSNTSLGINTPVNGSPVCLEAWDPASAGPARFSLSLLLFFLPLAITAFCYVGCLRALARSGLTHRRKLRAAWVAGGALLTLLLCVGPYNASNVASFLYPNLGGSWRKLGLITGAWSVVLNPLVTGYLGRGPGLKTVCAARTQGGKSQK
Procedure: (§1) Compounds were tested in a calcium flux assay using transfected HEK293 cells stably expressing either human GPR40 or rat GPR40. Human GPR40 expressing cells were cultured in DMEM-High Glucose media supplemented with 10% fetal bovine serum, 1×L-Glutamine, 1×Penicillin/Streptomycin and 500 μg/mL G418. Rat GPR40 expressing cells were cultured in DMEM-High Glucose media supplemented with 10% fetal bovine serum and 1 μg/mL puromycin. Cells were plated into poly-D-lysine coated 384-well plates and cultured overnight in a 37° C. humidified tissue culture incubator under 5% CO2/[…] atmosphere. On the day of the experiment, the culture media was replaced with assay buffer (HBSS, 20 mM HEPES, 0.1% BSA) and the cells incubated at 37° C. for 1 h. Calcium-sensitive fluorescent dye (Fluo 8 No-Wash Calcium Dye, ABD Bioquest) was then added and the cells incubated for another 30 min at 37° C. followed by 15 min at room temperature while protected from the light. The cell plate and a plate of diluted compounds of Formula (I) were loaded into a fluorescent plate reader that added compounds onto the cells while measuring the fluorescence intensity of each well. The plate reader recorded fluorescence intensity at 1 second intervals for 8 min and provided the data for analysis in an Excel format. EC50 values were calculated using Prism (GraphPad) software.

[2] = biological target: T2, rat GPR40 (Rattus norvegicus, UniProt Q8K3T4); assay: GPR40 calcium flux assay, HEK293 cells stably expressing rat GPR40; assay type: cell-based; conditions: transfected HEK293 cells stably expressing rat GPR40, Fluo 8 dye, read-out: rGPR40 Ca2+ Assay EC50
T2 construct: expressed in transfected cells
T2 sequence (Q8K3T4 whole entry): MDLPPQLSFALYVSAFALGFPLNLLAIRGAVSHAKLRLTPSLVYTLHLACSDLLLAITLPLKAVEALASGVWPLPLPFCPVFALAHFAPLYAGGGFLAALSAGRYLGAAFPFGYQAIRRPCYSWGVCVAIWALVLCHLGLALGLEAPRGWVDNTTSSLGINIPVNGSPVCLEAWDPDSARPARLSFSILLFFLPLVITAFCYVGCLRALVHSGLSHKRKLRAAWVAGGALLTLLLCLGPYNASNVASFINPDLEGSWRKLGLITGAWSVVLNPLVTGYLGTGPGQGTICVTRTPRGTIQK
Procedure: as §1

Compound | EC50 [1] [nM] | EC50 [2] [nM]
COc1ccc(F)c([C@]2(OC)CC[C@H](COc3cccc([C@@H](CC(=O)O)C4CC4)c3)CC2)c1 [Cpd 12, (S)-3-Cyclopropyl-3-(3-(((1r,4S)-4-(2-fluoro-5-methoxyphenyl)-4-methoxycyclohexyl)methoxy)phenyl)propanoic acid] | 13.8 | 152
COc1cc([C@H]2CC[C@H](COc3cccc([C@H](C4CC4)C(C)(F)C(=O)O)c3)CC2)c(F)cn1 (some centres unmarked) [Cpd 61] | 0.25 | 0.53
COc1cc([C@]2(OC)CC[C@H](COc3cc([C@@H](CC(=O)O)C4CC4)ccn3)CC2)c(F)cn1 [Cpd 45, (S)-3-Cyclopropyl-3-(2-(((1r,4S)-4-(5-fluoro-2-methoxypyridin-4-yl)-4-methoxycyclohexyl)methoxy)pyridin-4-yl)propanoic acid] | 258 | 855
COc1ccc(F)c([C@H]2CC[C@H](CNc3cccc([C@@H](CC(=O)O)C4CC4)c3)CC2)c1 [Cpd 40, (S)-3-Cyclopropyl-3-(3-((((1r,4 S)-4-(2-fluoro-5-methoxyphenyl)cyclohexyl)methyl)amino)phenyl)propanoic acid] | 22 | 21
CC#CC(CC(=O)O)c1cccc(OC[C@H]2CC[C@@H](c3cc(OC)ccc3F)CC2)c1 (some centres unmarked) [Cpd 42, 3-(3-(((1 s,4s)-4-(2-Fluoro-5-methoxyphenyl)cyclohexyl)methoxy)phenyl)hex-4-ynoic acid] | 3100 | 401
COc1ccc(C)c(C2CCC(COc3cccc([C@H](C4CC4)C(C)(F)C(=O)O)c3)CC2)c1 (stereo partly drawn) [Cpd 70, (3S)-3-Cyclopropyl-2-fluoro-3-(3-((4-(5-methoxy-2-methylphenyl)cyclohexyl)methoxy)phenyl)-2-methylpropanoic acid] | 0.16 | 0.15
CCc1ccc(F)c([C@H]2CC[C@H](COc3cccc([C@H](C4CC4)C(C)(F)C(=O)O)c3)CC2)c1 (stereo partly drawn) [Cpd 68, (3S)-3-Cyclopropyl-3-(3-(((1r,4S)-4-(5-ethyl-2-fluorophenyl)cyclohexyl)methoxy)phenyl)-2-fluoro-2-methylpropanoic acid] | 0.27 | 2.22
COc1ccc(F)c([C@]2(O)CC[C@@H](COc3cccc([C@@H](CC(=O)O)C4CC4)c3)CC2)c1 [Cpd 3, (S)-3-Cyclopropyl-3-(3-(((1s,4R)-4-(2-fluoro-5-methoxyphenyl)-4-hydroxycyclohexyl)methoxy)phenyl)propanoic acid] | 24.8 | 160
COc1ccc(F)c(C2CCC(COc3cccc([C@H](C4CC4)C(F)C(=O)O)c3)CC2)c1 (stereo partly drawn) [Cpd 54, (3S)-3-Cyclopropyl-2-fluoro-3-(3-(((1r,4S)-4-(2-fluoro-5-methoxyphenyl)cyclohexyl)methoxy)phenyl)propanoic acid] | 0.5 | 1.4
COc1cc(C2CCC(COc3cccc([C@H](C4CC4)C(C)(F)C(=O)O)c3)CC2)ccn1 (mixture of isomers) [Cpd 69, (3S)-3-Cyclopropyl-2-fluoro-3-(3-((4-(2-methoxypyridin-4-yl)cyclohexyl)methoxy)phenyl)-2-methylpropanoic acid] | 1.2 | 1.5
COc1ccc(F)c([C@H]2CC[C@H](COc3cccc(C(CC(=O)O)C4CC4)c3)CC2)c1 (mixture of isomers) [Cpd 56, 3-Cyclopropyl-3-(3-(((1r,4r)-4-(2-fluoro-5-methoxyphenyl)cyclohexyl)methoxy)phenyl) propanoic acid] | 3 | 14.4
CCc1ccc(F)c([C@H]2CC[C@H](COc3cccc([C@H](C4CC4)[C@H](C)C(=O)O)c3)CC2)c1 [Cpd 57, (2S,3R)-3-cyclopropyl-3-(3-(((1r,4R)-4-(5-ethyl-2-fluorophenyl)cyclohexyl)methoxy)phenyl)-2-methylpropanoic acid] | 0.5 | 1.2
CCOC(CC(=O)O)c1cccc(OC[C@H]2CC[C@@H](c3cc(OC)ccc3F)CC2)c1 (some centres unmarked) [Cpd 50, 3-Ethoxy-3-(3-(((1s,4s)-4-(2-fluoro-5-methoxyphenyl)cyclohexyl)methoxy)phenyl) propanoic acid] | 500 | 656
COc1ccc(F)c([C@H]2CC[C@H](COc3cccc([C@H](CC(=O)O)C4CC4)c3)CC2)c1 [Cpd 38, (R)-3-cyclopropyl-3-(3-(((1r,4R)-4-(2-fluoro-5-methoxyphenyl)cyclohexyl)methoxy)phenyl)propanoic acid] | 6.2 | 15.6
COc1ccc(F)c([C@H]2CC[C@H](COc3cccc([C@@H](Cc4nnn[nH]4)C4CC4)c3)CC2)c1 [Cpd 17, 5-((S)-2-Cyclopropyl-2-(3-(((1r,4S)-4-(2-fluoro-5-methoxyphenyl)cyclohexyl)methoxy)phenyl)ethyl)-1H-tetrazole] | 44.3 | 388
COc1cc([C@H]2CC[C@H](COc3cccc([C@H](C4CC4)[C@@](C)(F)C(=O)O)c3)CC2)c(F)cn1 [Cpd 62] | 0.25 | 0.56
COc1ccc(F)c([C@H]2CC[C@H](COc3cccc([C@H](C4CC4)C(C)(F)C(=O)O)c3)CC2)c1 (stereo partly drawn) [Cpd 58, (3S)-3-Cyclopropyl-2-fluoro-3-(3-(((1r,4S)-4-(2-fluoro-5-methoxyphenyl)cyclohexyl)methoxy)phenyl)-2-methylpropanoic acid] | 0.3 | 0.23
COc1cccc(C2CCC(COc3cccc([C@H](C4CC4)C(C)(F)C(=O)O)c3)CC2)c1 (stereo partly drawn) [Cpd 66, (3S)-3-Cyclopropyl-2-fluoro-3-(3-((4-(3-methoxyphenyl)cyclohexyl)methoxy)phenyl)-2-methylpropanoic acid] | 0.25 | 0.4

More lines, now with the values ahead:

EC50 [1] [nM] | EC50 [2] [nM] | Compound
281 | 464 | COc1cc([C@H]2CC[C@H](COc3cc([C@@H](Cc4nnn[nH]4)C4CC4)ccn3)CC2)c(F)cn1 [Cpd 43, 4-((1S,4r)-4-(((4-((S)-1-Cyclopropyl-2-(1H-tetrazol-5-yl)ethyl)pyridin-2-yl)oxy)methyl)cyclohexyl)-5-fluoro-2-methoxypyridine]
0.5 | 1.4 | COc1cc([C@H]2CC[C@H](COc3cc(C(CC(=O)O)C4CC4)ccn3)CC2)c(F)cn1 (some centres unmarked) [Cpd 8, 3-Cyclopropyl-3-(2-(((1r,4r)-4-(5-fluoro-2-methoxypyridin-4-yl)cyclohexyl)methoxy)pyridin-4-yl)propanoic acid]
9.9 | 29 | COc1cc([C@]2(OC)CC[C@@H](COc3cc([C@@H](CC(=O)O)C4CC4)ccn3)CC2)c(F)cn1 [Cpd 44, (S)-3-cyclopropyl-3-(2-(((1s,4R)-4-(5-fluoro-2-methoxypyridin-4-yl)-4-methoxycyclohexyl)methoxy)pyridin-4-yl) propanoic acid]
79 | 220 | COc1cc([C@H]2CC[C@H](COc3cc([C@H](C4CC4)C(C)(F)C(=O)O)ccn3)CC2)c(F)cn1 (stereo partly drawn) [Cpd 80, (3S)-3-Cyclopropyl-2-fluoro-3-(2-(((1r,4S)-4-(5-fluoro-2-methoxypyridin-4-yl)cyclohexyl)methoxy)pyridin-4-yl)-2-methylpropanoic acid]
34.7 | 79.8 | COc1cc([C@H]2CC[C@@H](COc3cc(C(CC(=O)O)C4CC4)ccn3)CC2)c(F)cn1 (some centres unmarked) [Cpd 7, 3-Cyclopropyl-3-(2-(((1s,4s)-4-(5-fluoro-2-methoxypyridin-4-yl)cyclohexyl)methoxy)pyridin-4-yl)propanoic acid]
59 | 256 | COc1cc([C@H]2CC[C@@H](COc3ccnc(C(CC(=O)O)C4CC4)c3)CC2)c(F)cn1 (some centres unmarked) [Cpd 32, 3-Cyclopropyl-3-(4-(((1s,4s)-4-(5-fluoro-2-methoxypyridin-4-yl)cyclohexyl)methoxy)pyridine-2-yl)propanoic acid]
18 | 43 | COc1ccc(F)c([C@H]2CC[C@@H](COc3cc([C@H](CC(=O)O)C4CC4)ccn3)CC2)c1 [Cpd 41, (R)-3-Cyclopropyl-3-(2-(((1s,4S)-4-(2-fluoro-5-methoxyphenyl)cyclohexyl)methoxy)pyridin-4-yl)propanoic acid]
10.9 | 19.8 | COc1ccc(F)c([C@H]2CC[C@H](COc3cc([C@H](CC(=O)O)C4CC4)ccn3)CC2)c1 [Cpd 26, (R)-3-cyclopropyl-3-(2-(((1r,4r)-4-(2-fluoro-5-methoxyphenyl)cyclohexyl)methoxy)pyridin-4-yl)propanoic acid]
75.6 | 146 | COc1ccc(F)c([C@H]2CC[C@@H](COc3cc(C(CC(=O)O)C4CC4)ccn3)CC2)c1 (some centres unmarked) [Cpd 5, 3-Cyclopropyl-3-(2-(((1 s,4s)-4-(2-fluoro-5-methoxyphenyl)cyclohexyl)methoxy)pyridin-4-yl)propanoic acid]
212 | 676 | CCOc1cc([C@H]2CC[C@@H](COc3cc([C@@H](CC(=O)O)C4CC4)ccn3)CC2)c(F)cn1 [Cpd 48, (S)-3-cyclopropyl-3-(2-(((1s,4R)-4-(2-ethoxy-5-fluoropyridin-4-yl)cyclohexyl)methoxy)pyridin-4-yl)propanoic acid]
